Source: patent publication US20230330059A1, “3-PHENYL-2H-CHROMENE DERIVATIVE AND PHARMACEUTICAL COMPOSITION FOR PREVENTING OR TREATING ALZHEIMER'S, CONTAINING SAME” (NEUROBIONET, INC., priority 2020, published 2023)

Columns and labels:
[1] = biological target: T1, Aβ42 (Homo sapiens, UniProt P05067); assay: Thioflavin T (ThT) assay of Aβ fibrosis; type: biochemical; conditions: ThT fluorescence, 37° C., 180 minutes; compared to negative control and Daidzein or Equol; FIG. 1
T1 construct: 1,1,1,3,3,3-hexafluoro-2-propanol-treated Aβ42 (# A-1163-1, rPeptide); purchased rPeptide A-1163-1
T1 sequence (P05067 672-713 limits assumed): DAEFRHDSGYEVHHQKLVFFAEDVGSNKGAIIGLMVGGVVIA
Procedure: ThT assay was used to examine whether the drugs have an inhibitory activity against the fibrosis of Aβ. Lyophilized AggreSure AβAS-72216, AnaSpec) was dissolved in cold Tris buffered saline (TBS; pH 7.2) to prepare a 160 µg/mL Aβ solution. The solution was aliquoted into 1.5 mL tubes and stored at -80° C. until use. ThT (# T3516, Sigma-Aldrich) and drug candidates were dissolved in TBS to form a final concentration of 500 µM. The diluted aggregates were added to […] black plates (Nunc # 242764), mixed with ThT and drug candidates, and incubated at 37° C. for 180 minutes. Fluorescence signals were measured every 5 minutes using a plate reader (Victor3, PerkinElmer).

[2] = biological target: T1, Aβ42; assay: Multimer detection system (MDS) assay of Aβ42 oligomerization; type: biochemical; conditions: compounds 100 µM, Aβ42 200 µg/mL; compared to negative control and Daidzein or Equol; FIG. 2
Procedure: The drugs selected on the basis of the ThT assay results were evaluated for inhibitory activity against the oligomerization of Aβ42, using a multimer detection system (MDS) assay. Immediately after being dissolved in 1% NH4OH (# 221228, Sigma-Aldrich), 1,1,1,3,3,3-hexafluoro-2-propanol-treated Aβ42 (# A-1163-1, rPeptide) was diluted in 500 µL of phosphate-buffered saline (PBS; pH 7.5), aliquoted into 1.5-mL tubes, and stored at -80° C. until use. Aβ42 and the compounds were mixed with PBS to make final concentrations of 200 µg/mL and 100 µM, respectively, and incubated at room temperature. Aggregation of Aβ42 was terminated by maintaining at -80° C.
After the reaction between each drug and Aβ42, the oligomeric form of Aβ42 was measured for each time to measure inhibitory effects on the oligomer.

[3] = test system: nitric oxide production in LPS-treated primary microglia; assay: Nitric oxide production (Griess) in LPS-treated primary microglia; type: cell-based, ICR mice; conditions: FIG. 9a
Procedure: BV2 cells were seeded at a density of 4 x 10^5 cells/well into 96-well plates, and primary microglial cells isolated from the brain of […] ICR mice were seeded at a density of 4 x 10^5 cells/well into 24-well plates.
After stabilization for 24 hours, the cells were treated with various concentrations (1 and 5 µM) of daidzein, o-desmethylangolensin, S-equal, SPA1413, and SPA1426 for 30 minutes and then with LPS (100 ng/ml) for 24 hours at 37° C. The culture media were collected and measured for NO production using a Griess reagent solution (1% sulfanilamide and 0.1% N-1-naphthyl ethylenediamine dihydrochloride in 5% phosphoric acid). Briefly, a total of 50 µL of the supernatant was transferred to new 96-well plates and mixed with the same volume of the Griess reagent solution, followed by measuring OD at 570 nm. In addition, the cell viability was assayed in the same manner as in Experimental Example 2.

[4] = test system: TNF-a; assay: TNF-a production (ELISA) in LPS-treated BV2 cells; type: cell-based, mouse; conditions: 5 µM, LPS (100 ng/ml) 24 hours, FIG. 10b
Procedure: BV2 cells were seeded at a density of 4x10^5 cells/well into 96-well plates and stabilized for 24 hours. Thereafter, the cells were treated with 5 µM of daidzein, o-desmethylangolensin, S-equal, SPA1413, or SPA1426 for 30 minutes and then with LPS (100 ng/ml) for 24 hours at 37° C. The culture medium was collected and quantitatively measured for IL-6 and TNF-a released to the BV2 culture supernatant, using the enzyme immunoassay method […] Enzyme-Linked Immuno Assay (ELISA) kit (R&D systems, Minneapolis, MN, USA). The IL-6 and TNF-a releases from the groups treated with the samples were evaluated relative to that from the LPS-treated group, which was set to be 100%, and the results are depicted in FIGS. 10a and 10b.

[5] = test system: COX-2; assay: COX-2 protein expression (western blot) in LPS-treated BV2 cells; type: cell-based, mouse; conditions: 5 µM, LPS (100 ng/ml) 24 hours, FIG. 11a
Procedure: (§1) BV2 cells were aliquoted at a density of 1x10^6 cells/well into 60 mm dishes and stabilized for 24 hours. Thereafter, the cells were treated with 5 µM of S-equal, SPA1413, or SPA1426 for 30 minutes and then with LPS (100 ng/ml) for 24 hours at 37° C. After being cultured to reach 100% confluence, the cells were washed with PBS and lysed with a lysis buffer (PRO-PREP™ Protein Extraction Solution, Intron Biotechnology, Seongnam, Korea). With bovine serum albumin (BSA) serving as a standard, the protein contents of the lysate supernatants were measured by Bio-Rad Protein Assay (Bio-Rad, California, USA) to determine the total protein content in each sample. Afterwards, each of the samples was loaded in a protein amount of 30 µg on a 10-12% SDS-PAGE gel and run for electrophoresis. The electrophorized proteins were transferred to a PVDF membrane which was then blocked with 5% skim milk and incubated with antibodies to COX-2 or iNOS (Cell Signaling Technologies, Massachusetts, USA). Detection was conducted with a ChemiDoc XRS+ imaging system (Bio-Rad, CA, USA).

[6] = test system: iNOS; assay: iNOS protein expression (western blot) in LPS-treated BV2 cells; type: cell-based, mouse; conditions: 5 µM, LPS (100 ng/ml) 24 hours, FIG. 11b
Procedure: as §1

[7] = test system: NGF release in C6 cells; assay: Nerve growth factor (NGF) release in C6 cells (ELISA); type: cell-based, rat; conditions: 5 µM, 24 hours, compared to the normal group, FIG. 13
Procedure: C6 cells were seeded at a density of 4x10^5 cells/well into 96-well plates and stabilized for 24 hours. Thereafter, the cells were treated with 5 µM of daidzein, o-desmethylangolensin, S-equal, SPA1413, or SPA1426 for 24 hours. The culture medium was collected and quantitatively measured for NGF released to the C6 culture supernatant using the enzyme immunoassay method Competitive Enzyme-Linked Immuno Assay (ELISA) kit (R&D systems, Minneapolis, MN, USA). The NGF releases from the groups treated with the samples were evaluated relative to that from the normal group, which was set to be 100%, and the results are depicted in FIG. 13.

Row | SMILES | inhibition of Aβ42 fibrosis [1] | inhibition of Aβ42 oligomerization [2] | NO production [3] | TNF-a production [4] | expression level of COX-2 [5] | expression level of iNOS [6] | NGF content [7]
1 | Oc1ccc(C2=Cc3ccc(O)cc3OC2)cc1 [SPA1413, 3-(4-Hydroxyphenyl)-2H-chromen-7-ol] | showed the effect of inhibiting Aβ42 fibrosis | exhibited inhibitory effects on Aβ42 oligomerization | decreased NO production in dose-dependent manners | significantly decreased | significantly decreased | significantly decreased | significantly increased
2 | CCCC(=O)Oc1ccc(C2=Cc3ccc(OC(=O)CCC)cc3OC2)cc1 [SPA1426, 4-(7-(butyryloxy)-2H-chromen-3-yl)phenyl butyrate] | showed the effect of inhibiting Aβ42 fibrosis | exhibited inhibitory effects on Aβ42 oligomerization | decreased NO production in dose-dependent manners | significantly decreased | significantly decreased | significantly decreased | significantly increased
